± gives the standard deviation of the averaged measurements.
Key:
Assay in all cases: level (log10 ratio to DMSO vehicle control); higher = higher biomarker level / cell amount than vehicle control
[1] = compound: O=S(=O)(Cl)C(F)(F)C(F)(F)C(F)(F)C(F)(F)C(F)(F)C(F)(F)C(F)(F)C(F)(F)F [Perfluoro-1-octanesulfonyl chloride]; details: in DMSO
Experimental: (§1)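 BioMAP Diversity Plus panel of 12 human primary cell co-culture systems (3C, 4H, LPS, SAg, BT, BF4T, BE3C, CASM3C, HDF3CGF, KF3CT, MyoF, Mphg). Compounds were added 1 h before stimulation and left for 24 h (MyoF 48 h; BT 72 h for soluble read-outs or 6 d for IgG). Biomarkers were read by ELISA, cytotoxicity by SRB, PBMC viability and proliferation by Alamar Blue. Each well value was divided by the mean of 8 DMSO control wells on the same plate and log10 transformed; duplicate blinded samples were tested at 4 concentrations.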

[2] = compound: O=C(O)C(F)(F)C(F)(F)C(F)(F)C(F)(F)C(F)(F)C(F)(F)C(F)(F)C(F)(F)C(F)(F)C(F)F [11-H-Perfluoroundecanoic acid]; details: in DMSO
Experimental: as §1

[3] = compound: O=C(O)C=CC(F)(C(F)(F)F)C(F)(F)F [3-(Perfluoroisopropyl)-2-propenoic acid]; details: in DMSO
Experimental: as §1

[4] = compound: FC(F)(F)C(F)(F)C(F)(F)CC1CO1 [1H,1H-Heptafluorobutyl epoxide]; details: in DMSO
Experimental: as §1

[5] = compound: O=S(=O)(F)C(F)(F)C(F)(F)C(F)(F)C(F)(F)C(F)(F)C(F)(F)C(F)(F)C(F)(F)F [Perfluorooctanesulfonyl fluoride]; details: in DMSO
Experimental: as §1

[6] = compound: FC(F)(F)C(F)(F)C(F)(F)C(F)(F)C(F)(F)C(F)(F)C(F)(F)I [1-Iodopentadecafluoroheptane]; details: in DMSO
Experimental: as §1

[7] = compound: NC(=O)C(F)(F)C(F)(F)C(F)(F)C(F)F; details: in DMSO
Experimental: as §1

[8] = compound: FC(F)(F)C(F)(F)C(F)(F)C(F)(F)C(F)(F)C(F)(F)CC1CO1 [3-(Perfluorohexyl)-1,2-epoxypropane]; details: in DMSO
Experimental: as §1

[9] = compound: COC(=O)C(F)(F)C(F)(F)OC(F)(C(F)(F)F)C(F)(F)OC(F)=C(F)F [Methyl perfluoro(3-(1-ethenyloxypropan-2-yloxy)propanoate)]; details: in DMSO
Experimental: as §1

Octafluoroadipamide = compound: NC(=O)C(F)(F)C(F)(F)C(F)(F)C(F)(F)C(N)=O [Octafluoroadipamide]; details: in DMSO
Experimental: as §1

[10] = compound: C=CC(=O)OCC(F)(F)C(F)(F)C(F)(F)COC(=O)C=C [1H,1H,5H,5H-Perfluoro-1,5-pentanediol diacrylate]; details: 6700 nM; in DMSO
Experimental: as §1

[11] = compound: FC(F)(F)C(F)(F)CNCC(F)(F)C(F)(F)F [Bis(1H,1H-perfluoropropyl)amine]; details: in DMSO
Experimental: as §1

[12] = compound: NS(=O)(=O)C(F)(F)C(F)(F)C(F)(F)C(F)(F)C(F)(F)C(F)(F)F [Perfluorohexanesulfonamide]; details: in DMSO
Experimental: as §1

Heptafluorobutyl iodide = compound: FC(F)(F)C(F)(F)C(F)(F)CI [Heptafluorobutyl iodide]; details: in DMSO
Experimental: as §1

[13] = compound: O=S(=O)(O)C(F)(F)C(F)(F)C(F)(F)C(F)(F)C(F)(F)C(F)(F)C(F)(F)C(F)(F)C(F)(F)C(F)(F)F [Sodium perfluorodecanesulfonate]; details: in DMSO
Experimental: as §1

[14] = compound: C=C(C)C(=O)OCCC(F)(F)C(F)(F)C(F)(F)C(F)(F)C(F)(F)C(F)(F)F [6:2 Fluorotelomer methacrylate]; details: in DMSO
Experimental: as §1

[15] = compound: O=S(=O)(O)CCC(F)(F)C(F)(F)C(F)(F)C(F)(F)C(F)(F)C(F)(F)F [6:2 Fluorotelomer sulfonic acid]; details: in DMSO
Experimental: as §1

Nonafluoropentanamide = compound: NC(=O)C(F)(F)C(F)(F)C(F)(F)C(F)(F)F [Nonafluoropentanamide]; details: in DMSO
Experimental: as §1

Hexafluoroamylene glycol = compound: OCC(F)(F)C(F)(F)C(F)(F)CO [Hexafluoroamylene glycol]; details: in DMSO
Experimental: as §1

MyoF:Decorin
level (log10) ([1]; 6700 nM): -0.007 ± 0.0071
level (log10) ([1]; 20000 nM): 0.014 ± 0.033
level (log10) ([1]; 60000 nM): 0.09 ± 0.085
level (log10) ([2]; 6700 nM): 0.0415 ± 0.077
level (log10) ([2]; 20000 nM): 0.052 ± 0.031
level (log10) ([3]; 6700 nM): -0.0045 ± 0.021
level (log10) ([3]; 20000 nM): 0.004 ± 0.0014
level (log10) ([3]; 60000 nM): 0.0225 ± 0.029
level (log10) ([4]; 6700 nM): -0.01 ± 0.014
level (log10) ([4]; 20000 nM): -0.009 ± 0.028
level (log10) ([4]; 60000 nM): 0.009 ± 0.035
level (log10) ([5]; 6700 nM): 0.001 ± 0.011
level (log10) ([5]; 20000 nM): -0.013 ± 0.0042
level (log10) ([5]; 60000 nM): 0.016 ± 0.0057
level (log10) ([6]; 6700 nM): 0.0365 ± 0.049
level (log10) ([6]; 20000 nM): 0.0215 ± 0.029
level (log10) ([7]; 6700 nM): 0.012 ± 0.0085
level (log10) ([7]; 20000 nM): -0.0035 ± 0.03
level (log10) ([7]; 60000 nM): -0.009 ± 0.0085
level (log10) ([8]; 6700 nM): 0.001 ± 0.03
level (log10) ([8]; 20000 nM): 0.003
level (log10) ([8]; 60000 nM): 0.0265 ± 0.035
level (log10) ([9]; 6700 nM): 0.0595 ± 0.022
level (log10) ([9]; 20000 nM): 0.07 ± 0.017
level (log10) (Octafluoroadipamide; 6700 nM): 0.0105 ± 0.035
level (log10) (Octafluoroadipamide; 20000 nM): -0.0025 ± 0.0092
level (log10) (Octafluoroadipamide; 60000 nM): 0.017 ± 0.028
level (log10) [10]: -0.0325 ± 0.0064
level (log10) ([11]; 6700 nM): -0.005 ± 0.0071
level (log10) ([11]; 20000 nM): -0.0065 ± 0.021
level (log10) ([11]; 60000 nM): 0.015 ± 0.034
level (log10) ([12]; 6700 nM): 0.0325 ± 0.076
level (log10) ([12]; 20000 nM): -0.0095 ± 0.1
level (log10) ([12]; 60000 nM): -0.03 ± 0.054
level (log10) (Heptafluorobutyl iodide; 6700 nM): 0.0045 ± 0.016
level (log10) (Heptafluorobutyl iodide; 20000 nM): -0.016 ± 0.0071
level (log10) (Heptafluorobutyl iodide; 60000 nM): 0.005 ± 0.0042
level (log10) ([13]; 1500 nM): -0.0285 ± 0.016
level (log10) ([13]; 4400 nM): 0.013 ± 0.0099
level (log10) ([13]; 13000 nM): -0.0025 ± 0.016
level (log10) ([13]; 40000 nM): 0.034
level (log10) ([14]; 6700 nM): -0.0045 ± 0.033
level (log10) ([14]; 20000 nM): 0.0325 ± 0.028
level (log10) ([14]; 60000 nM): 0.015 ± 0.0042
level (log10) ([15]; 6700 nM): 0.0105 ± 0.0035
level (log10) ([15]; 20000 nM): 0.0015 ± 0.00071
level (log10) ([15]; 60000 nM): 0.0435 ± 0.0021
level (log10) (Nonafluoropentanamide; 6700 nM): -0.0155 ± 0.0078
level (log10) (Nonafluoropentanamide; 20000 nM): 0.013 ± 0.0028
level (log10) (Nonafluoropentanamide; 60000 nM): -0.0045 ± 0.00071
level (log10) (Hexafluoroamylene glycol; 6700 nM): 0.001 ± 0.0042
level (log10) (Hexafluoroamylene glycol; 20000 nM): -0.01 ± 0.0042
level (log10) (Hexafluoroamylene glycol; 60000 nM): -0.015 ± 0.013

Source: the supplement of paper PMC10331698
